For the assay, the system named is HIV. The assay can be described thus: MT4 assay (anti-HIV activity). It is filed as cell-based. The settings on record: Human immunodeficiency virus 1, 96 h, antiviral HIV activity in HTLV-1 transformed cell line MT-4; luciferase read 96 hours later; 10 point dose response. A digest of the protocol: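 MT-4 cells infected with HIV, with inhibition readout by CellTiter-Glo luminescence at 96 h relative to no-compound control. Cytotoxicity measured in parallel under the same conditions. IC50 from a 10-point, 3-4-fold dilution series spanning >1000-fold, fitted with a four-parameter logistic equation.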
As usually defined, the IC50 is the concentration that gives 50% inhibition. For `Cc1c(-c2c(C)c3c(c(C)c2[C@H](OC(C)(C)C)C(=O)O)CCN(S(=O)(=O)C2CCCCC2)C3)cc(F)c2c1CCCO2` [Example 80, (S)-2-(tert-Butoxy)-2-((R)-2-(cyclohexylsulfonyl)-7-(8-fluoro-5-methylchroman-6-yl)-5,8-dimethyl-1,2,3,4-tetrahydroisoquinolin-6-yl)acetic Acid], the IC50 was 13 nM. Consider `Cc1c(-c2c(C)c3c(c(C)c2[C@H](OC(C)(C)C)C(=O)O)CCN(C2CCC(C)(C)CC2)C3)cc(F)c2c1CCCO2` [Example 81, (S)-2-(tert-Butoxy)-2-((R)-2-(4,4-dimethylcyclohexyl)-7-(8-fluoro-5-methylchroman-6-yl)-5,8-dimethyl-1,2,3,4-tetrahydroisoquinolin-6-yl)acetic Acid], for which the IC50 came to 4 nM. The value for `COc1c(F)cccc1C(=O)N1CCc2c(C)c([C@H](OC(C)(C)C)C(=O)O)c(-c3cc(F)c4c(c3C)CCCO4)c(C)c2C1` [Example 82, (S)-2-(tert-Butoxy)-2-((R)-2-(3-fluoro-2-methoxybenzoyl)-7-(8-fluoro-5-methylchroman-6-yl)-5,8-dimethyl-1,2,3,4-tetrahydroisoquinolin-6-yl)acetic Acid] was 20 nM; that for `Cc1c(-c2c(C)c3c(c(C)c2[C@H](OC(C)(C)C)C(=O)O)CCN(CC2CCCCC2)C3)cc(F)c2c1CCCO2` [Example 85, (S)-2-(tert-Butoxy)-2-((R)-2-(cyclohexylmethyl)-7-(8-fluoro-5-methylchroman-6-yl)-5,8-dimethyl-1,2,3,4-tetrahydroisoquinolin-6-yl)acetic Acid] was 14 nM; that for `Cc1c2c(c(C)c([C@H](OC(C)(C)C)C(=O)O)c1-c1ccc(Cl)cc1)CCN(S(=O)(=O)C1CCCCC1)C2` [Example 86, (S)-2-(tert-butoxy)-2-(7-(4-chlorophenyl)-2-(cyclohexylsulfonyl)-5,8-dimethyl-1,2,3,4-tetrahydroisoquinolin-6-yl)acetic Acid] was 38 nM.

With `Cc1c2c(c(C)c([C@H](OC(C)(C)C)C(=O)O)c1-c1ccc(Cl)cc1)CCN(C1CCCCC1)C2` [Example 87, (S)-2-(tert-butoxy)-2-(7-(4-chlorophenyl)-2-cyclohexyl-5,8-dimethyl-1,2,3,4-tetrahydroisoquinolin-6-yl)acetic Acid], the IC50 worked out at 15 nM. In the case of `Cc1c(-c2c(C)c3c(c(C)c2[C@H](OC(C)(C)C)C(=O)O)CCN(Cc2ccccc2)C3)cc(F)c2c1CCCO2` [Example 90, (S)-2-((R)-2-Benzyl-7-(8-fluoro-5-methylchroman-6-yl)-5,8-dimethyl-1,2,3,4-tetrahydroisoquinolin-6-yl)-2-(tert-butoxy)acetic Acid] it was 67 nM; in that of `Cc1c(-c2c(C)c3c(c(C)c2[C@H](OC(C)(C)C)C(=O)O)CCN(C(=O)c2ccccc2)C3)cc(F)c2c1CCCO2` [Example 91, (S)-2-((R)-2-Benzoyl-7-(8-fluoro-5-methylchroman-6-yl)-5,8-dimethyl-1,2,3,4-tetrahydroisoquinolin-6-yl)-2-(tert-butoxy)acetic Acid], 48 nM; in that of `COc1ccc(C(=O)N2CCc3c(C)c([C@H](OC(C)(C)C)C(=O)O)c(-c4cc(F)c5c(c4C)CCCO5)c(C)c3C2)cc1F` [Example 92, (S)-2-(tert-Butoxy)-2-((R)-2-(3-fluoro-4-methoxybenzoyl)-7-(8-fluoro-5-methylchroman-6-yl)-5,8-dimethyl-1,2,3,4-tetrahydroisoquinolin-6-yl)acetic Acid], 153 nM. In the case of `Cc1c(-c2c(C)c3c(c(C)c2[C@H](OC(C)(C)C)C(=O)O)CCN(C(=O)c2cccc(OC(C)C)c2)C3)cc(F)c2c1CCCO2` [Example 93, (S)-2-(tert-Butoxy)-2-((R)-7-(8-fluoro-5-methylchroman-6-yl)-2-(3-isopropoxybenzoyl)-5,8-dimethyl-1,2,3,4-tetrahydroisoquinolin-6-yl)acetic Acid], the IC50 is 178 nM.

Consider `Cc1c(-c2c(C)c3c(c(C)c2[C@H](OC(C)(C)C)C(=O)O)CCN(C(=O)c2ccc(C(F)(F)F)cc2)C3)cc(F)c2c1CCCO2` [Example 94, (S)-2-(tert-Butoxy)-2-((R)-7-(8-fluoro-5-methylchroman-6-yl)-5,8-dimethyl-2-(4-(trifluoromethyl)benzoyl)-1,2,3,4-tetrahydroisoquinolin-6-yl)acetic Acid], for which the IC50 is 384 nM.

`Cc1ccc(C(=O)N2CCc3c(C)c([C@H](OC(C)(C)C)C(=O)O)c(-c4cc(F)c5c(c4C)CCCO5)c(C)c3C2)cn1` [Example 96, (S)-2-(tert-Butoxy)-2-((R)-7-(8-fluoro-5-methylchroman-6-yl)-5,8-dimethyl-2-(6-methylnicotinoyl)-1,2,3,4-tetrahydroisoquinolin-6-yl)acetic Acid]: the IC50 is 109 nM.

On to `Cc1ccc(-c2c(C)c3c(c(C)c2C(OC(C)(C)C)C(=O)O)CC(=O)N(Cc2ccccc2)C3)cc1` (centres unmarked) [Example 98, 2-(2-Benzyl-5,8-dimethyl-3-oxo-7-(p-tolyl)-1,2,3,4-tetrahydroisoquinolin-6-yl)-2-(tert-butoxy)acetic Acid], for which the IC50 turned out to be 14 nM.

Turning to `Cc1ccc(-c2c(C)c3c(c(C)c2C(OC(C)(C)C)C(=O)O)CN(Cc2ccccc2)C(=O)C3)cc1` (centres unmarked) [Example 99, 2-(2-Benzyl-5,8-dimethyl-3-oxo-6-(p-tolyl)-1,2,3,4-tetrahydroisoquinolin-7-yl)-2-(tert-butoxy)acetic Acid], the IC50 is 3300 nM.

Consider `Cc1ccc(-c2c(C)c3c(c(C)c2[C@H](OC(C)(C)C)C(=O)O)CN(Cc2ccccc2)C(=O)C3)cc1` [Example 100, (S)-2-(2-Benzyl-5,8-dimethyl-3-oxo-6-(p-tolyl)-1,2,3,4-tetrahydroisoquinolin-7-yl)-2-(tert-butoxy)acetic Acid], for which the IC50 was determined as 1360 nM. Consider `Cc1ccc(-c2c(C)c3c(c(C)c2[C@H](OC(C)(C)C)C(=O)O)CC(=O)N(Cc2ccccc2)C3)cc1` [Example 101, (S)-2-(2-Benzyl-5,8-dimethyl-3-oxo-7-(p-tolyl)-1,2,3,4-tetrahydroisoquinolin-6-yl)-2-(tert-butoxy)acetic Acid], for which the IC50 is 4 nM. As to `Cc1c(-c2c(C)c3c(c(C)c2[C@H](OC(C)(C)C)C(=O)O)CC(=O)N(C2CCCC(C)(C)C2)C3)cc(F)c2c1CCCO2` (stereo partly drawn) [Example 111, (2S)-2-(tert-butoxy)-2-((7R)-2-(3,3-dimethylcyclohexyl)-7-(8-fluoro-5-methylchroman-6-yl)-5,8-dimethyl-3-oxo-1,2,3,4-tetrahydroisoquinolin-6-yl)acetic Acid], the half-inhibitory concentration (IC50) was 3 nM. Take `Cc1c(-c2c(C)c3c(c(C)c2[C@H](OC(C)(C)C)C(=O)O)CC(=O)N(C2CCCCC2(C)C)C3)cc(F)c2c1CCCO2` (stereo partly drawn) [Example 116, (2S)-2-(tert-butoxy)-2-((7R)-2-(2,2-dimethylcyclohexyl)-7-(8-fluoro-5-methylchroman-6-yl)-5,8-dimethyl-3-oxo-1,2,3,4-tetrahydroisoquinolin-6-yl)acetic Acid]: the IC50 was determined as 3 nM. In the case of `Cc1c(-c2c(C)c3c(c(C)c2[C@H](OC(C)(C)C)C(=O)O)CC(=O)N(C2CCCC(F)(F)C2)C3)cc(F)c2c1CCCO2` (stereo partly drawn) [Example 117, (2S)-2-(tert-butoxy)-2-((7R)-2-(3,3-difluorocyclohexyl)-7-(8-fluoro-5-methylchroman-6-yl)-5,8-dimethyl-3-oxo-1,2,3,4-tetrahydroisoquinolin-6-yl)acetic Acid] it was 2 nM.

As to `Cc1ccc(-c2c(C)c3c(c(C)c2C(OC(C)(C)C)C(=O)O)C(=O)N(Cc2ccccc2)CC3)cc1` (centres unmarked) [Example 121, 2-(2-benzyl-5,8-dimethyl-1-oxo-6-(p-tolyl)-1,2,3,4-tetrahydroisoquinolin-7-yl)-2-(tert-butoxy)acetic Acid], the IC50 was determined as 474 nM.

Values taken from US20180334436A1 (VIIV HEALTHCARE UK LIMITED, priority 2015, published 2018).
